Test results published in US8426420B2, “Heterocyclic pyrazole-carboxamidesas P2Y12 antagonists” (Sanofi, priority 2007, dated 2013).

How the values were obtained:
[1] = system: human platelet rich plasma; assay: Inhibition of human platelet aggregation, "Born"-method using single cuvettes; format: cell-based; settings: 0.1 h, ADP-induced aggregation, 6 minutes
Experimental: Inhibition of Human Platelet Aggregation
Alternatively to a binding assay which measures a compound's ability to bind to the P2Y12 receptor, the effect on cellular function was also determined. This ability of the compound was evaluated in two platelet aggregation assays: in 96-well plates and with the “Born”-method using single cuvettes.
Whole blood was collected from healthy volunteers using 20 ml syringes containing 2 ml of buffered Citrate. The anticoagulated whole blood was transferred into 15 ml polypropylene conical tubes (10 ml per tube). The tubes were centrifuged for 15 minutes at 340×g at RT without using the centrifuge brake. This procedure leads to a pellet of cellular components and a supernatant of platelet rich plasma (PRP). The PRP layer was collected from each tube and pooled for each donor. To avoid carry over of cellular components following centrifugation, approximately 5 ml of PRP was left in the tube. The platelet concentration was determined using a Coulter Counter.
The 15 ml tubes containing the pellet of cellular components were centrifuged again for 10 minutes at 1940×g. This pelleted out most particulate blood constituents remaining, leaving a layer of Platelet Poor Plasma (PPP). The PPP was collected for each donor. The PRP layer, previously set aside, was diluted with PPP to a final concentration of approximately 3×E8 platelets/ml with the PPP.
The human platelet aggregation assay is performed in single use cuvettes using the platelet aggregation profiler (PAP-4 or -8, Bio/Data corporation).
In the assay cuvette 4 μl of test compound at 100× final concentration in DMSO is mixed with 392 μl fresh PRP and incubated for 2 minutes at 37° C. with 1.200 rpm stirring. Following that incubation period, 4 μl of 250 μM ADP is added to the reaction mix. This addition of ADP is sufficient to induce aggregation in the absence of an inhibitor. After that aggregation is measured over 6 minutes at 37° C. with 1.200 rpm stirring. Results of the assay are expressed as % inhibition, and are calculated using maximum aggregation (Tmax) or area under curve (AUC) of the absorbance over 6 minutes.
The IC50 data of the above described platelet aggregation assay using human platelet rich plasma for exemplary compounds of the present invention are shown in table 3.

human P2Y12 receptor = human P2Y12 receptor (Homo sapiens, UniProt Q9H244); assay: Human P2Y12 recombinant cell membrane binding assay with 33P 2MeS-ADP; settings: competition against 33P 2MeS-ADP, membranes of CHO cells with recombinant human P2Y12 receptor
In short: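 CHO membranes expressing human P2Y12 (20 μg/ml stock) preincubated 15 min at RT with compound in HEPES pH 7.4 buffer, then 33P 2MeS-ADP (1.61 nM working solution) added for 20 min at RT. Bound label filtered and counted; four-point, five-fold series from 10 μM final, triplicate, four-parameter fit.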

[2] = system: human platelet rich plasma; assay: Inhibition of human platelet aggregation, 96-well assay; format: cell-based; settings: Homo sapiens, Platelet, 20 min
In short: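 ADP-induced aggregation read as 650 nm absorbance every minute for 20 min at 37 °C, with shaking between reads. PRP (~3×E8 platelets/ml, diluted with PPP, ACD-A blood from healthy volunteers) was exposed to compound for 5 min before adding a 40 μM ADP stock (15 μl into 150 μl).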

Sequence of human P2Y12 receptor (Q9H244 whole entry): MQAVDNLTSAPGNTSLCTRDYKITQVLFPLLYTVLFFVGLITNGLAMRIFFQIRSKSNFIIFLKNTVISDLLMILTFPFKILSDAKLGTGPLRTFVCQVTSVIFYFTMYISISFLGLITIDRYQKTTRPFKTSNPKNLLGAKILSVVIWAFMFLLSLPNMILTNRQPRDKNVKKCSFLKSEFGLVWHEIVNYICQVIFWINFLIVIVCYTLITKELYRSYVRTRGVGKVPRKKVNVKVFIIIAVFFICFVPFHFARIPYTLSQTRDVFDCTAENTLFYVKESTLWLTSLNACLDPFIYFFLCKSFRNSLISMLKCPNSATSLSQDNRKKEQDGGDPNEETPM

SMILES	IC50 [1] [nM]	IC50 (human P2Y12 receptor) [nM]	IC50 [2] [nM]
CCCCOC(=O)N1CCN(C(=O)[C@H](CCCO)NC(=O)c2cc(OCC(=O)N3CCC[C@H]3C(=O)NC3CCC3)n(-c3ccccc3)n2)CC1 [Example 178, 4-[(S)-2-({5-[2-((S)-2-Cyclobutylcarbamoyl-pyrrolidin-1-yl)-2-oxo-ethoxy]-1-phenyl-1H-pyrazole-3-carbonyl}-amino)-5-hydroxy-pentanoyl]-piperazine-1-carboxylic acid butyl ester]	70	17	–
CCOC(=O)N1CCN(C(=O)[C@H](CCC(=O)O)NC(=O)c2cc(OCC(=O)N3CCC[C@H]3C(=O)NC(C)C)n(-c3ccccc3)n2)CC1 [Example 10, 4-{(S)-4-Carboxy-2-[(5-{2-[(S)-2-isopropylcarbamoyl-pyrrolidin-1-yl]-2-oxo-ethoxy}-1-phenyl-1H-pyrazole-3-carbonyl)-amino]-butyryl}-piperazine-1-carboxylic acid ethyl ester]	340	146	–
CCOC(=O)N1CCN(C(=O)[C@H](CCC(=O)O)NC(=O)c2cc(O[C@H](C)C(=O)N3CCC[C@H]3C(=O)NCC3CC3)n(-c3ccccc3)n2)CC1 [Example 63, 4-[(S)-4-Carboxy-2-({5-[(R)-2-((S)-2-cyclopropylmethylcarbamoyl-pyrrolidin-1-yl)-1-methyl-2-oxo-ethoxy]-1-phenyl-1H-pyrazole-3-carbonyl}-amino)-butyryl]-piperazine-1-carboxylic acid ethyl ester]	20	41	–
CCOC(=O)N1CCN(C(=O)[C@H](CCC(=O)O)NC(=O)c2cc(O[C@@H](C)C(=O)N3CCC[C@H]3C(=O)NC3CCC3)n(-c3ccccc3)n2)CC1 [Example 67, 4-[(S)-4-Carboxy-2-({5-[(S)-2-((S)-2-cyclobutylcarbamoyl-pyrrolidin-1-yl)-1-methyl-2-oxo-ethoxy]-1-phenyl-1H-pyrazole-3-carbonyl}-amino)-butyryl]-piperazine-1-carboxylic acid ethyl ester]	950	–	110
CCOC(=O)N1CCN(C(=O)[C@H](CCC(=O)O)NC(=O)c2cc(OCC(=O)N3CCC[C@H]3C(=O)NCC(F)(F)F)n(-c3ccccc3)n2)CC1 [Example 2, 4-{(S)-4-Carboxy-2-[(5-{2-oxo-2-[(S)-2-(2,2,2-trifluoroethyl-carbamoyl)pyrrolidin-1-yl]-ethoxy}-1-phenyl-1H-pyrazole-3-carbonyl)-amino]-butyryl}-piperazine-1-carboxylic acid ethyl ester]	11	120	–
CCOC(=O)N1CCN(C(=O)[C@H](CCC(=O)O)NC(=O)c2cc(OCC(=O)N3CCC[C@H]3c3nc(C)no3)n(-c3ccccc3)n2)CC1 [Example 174, 4-{(S)-4-Carboxy-2-[(5-{2-[(S)-2-(3-methyl-[1,2,4]oxadiazol-5-yl)-pyrrolidin-1-yl]-2-oxo-ethoxy}-1-phenyl-1H-pyrazole-3-carbonyl)-amino]-butyryl}-piperazine-1-carboxylic acid ethyl ester]	2220	–	760
CCCCOC(=O)N1CCN(C(=O)CNC(=O)c2cc(O[C@H](C)C(=O)N3CCC[C@H]3C(=O)NC3CCC3)n(-c3ccccc3)n2)CC1 [Example 269, 4-[2-({5-[(R)-2-((S)-2-Cyclobutylcarbamoyl-pyrrolidin-1-yl)-1-methyl-2-oxo-ethoxy]-1-phenyl-1H-pyrazole-3-carbonyl}-amino)-acetyl]-piperazine-1-carboxylic acid butyl ester]	50	3	–
CCCCOC(=O)N1CCN(C(=O)[C@H](CCC(=O)O)NC(=O)c2cc(OCC(=O)N3CCC[C@H]3C(=O)N(C)C3CCC3)n(-c3ccccc3)n2)CC1 [Example 124, 4-{(S)-4-Carboxy-2-[(5-{2-[(S)-2-(cyclobutyl-methyl-carbamoyl)-pyrrolidin-1-yl]-2-oxo-ethoxy}-1-phenyl-1H-pyrazole-3-carbonyl)-amino]-butyryl}-piperazine-1-carboxylic acid butyl ester]	20	71	–
CCCCNC(=O)[C@@H]1CCCN1C(=O)COc1cc(C(=O)N[C@@H](CCC(=O)O)C(=O)N2CCN(C(=O)OCC)CC2)nn1-c1ccccc1 [Example 11, 4-{(S)-4-Carboxy-2-[(5-{2-[(S)-2-butylcarbamoyl-pyrrolidin-1-yl]-2-oxo-ethoxy}-1-phenyl-1H-pyrazole-3-carbonyl)-amino]-butyryl}-piperazine-1-carboxylic acid ethyl ester]	120	–	30
CCCCOC(=O)N1CCN(C(=O)[C@H](CCc2nn[nH]n2)NC(=O)c2cc(OCC(=O)N3CCC[C@H]3C(=O)NC3CCC3)n(-c3ccccc3)n2)CC1 [Example 126, 4-[(S)-2-({5-[2-((S)-2-Cyclobutylcarbamoyl-pyrrolidin-1-yl)-2-oxo-ethoxy]-1-phenyl-1H-pyrazole-3-carbonyl}-amino)-4-(2H-tetrazol-5-yl)-butyryl]-piperazine-1-carboxylic acid butyl ester]	79	–	50
CCOC(=O)N1CCN(C(=O)[C@H](CCC(=O)O)NC(=O)c2cc(OCC(=O)N3CCC[C@H]3C(=O)NC3CCCC3)n(-c3ccccc3)n2)CC1 [Example 13, 4-{(S)-4-Carboxy-2-[(5-{2-[(S)-2-cyclopentylcarbamoyl-pyrrolidin-1-yl]-2-oxo-ethoxy}-1-phenyl-1H-pyrazole-3-carbonyl)-amino]-butyryl}-piperazine-1-carboxylic acid ethyl ester]	38	–	10
CCOC(=O)N1CCN(C(=O)CNC(=O)c2cc(OCC(=O)N3CCC[C@H]3C(=O)NC3CCC3)n(-c3ccccc3)n2)CC1 [Example 181, 4-[2-({5-[2-((S)-2-Cyclobutylcarbamoyl-pyrrolidin-1-yl)-2-oxo-ethoxy]-1-phenyl-1H-pyrazole-3-carbonyl}-amino)-acetyl]-piperazine-1-carboxylic acid ethyl ester]	100	–	90
CCCCOC(=O)N1CCN(C(=O)[C@H](CF)NC(=O)c2cc(OCC(=O)N3CCC[C@H]3C(=O)NC3CCC3)n(-c3ccccc3)n2)CC1 [Example 262, 4-[(R)-2-({5-[2-((S)-2-Cyclobutylcarbamoyl-pyrrolidin-1-yl)-2-oxo-ethoxy]-1-phenyl-1H-pyrazole-3-carbonyl}-amino)-3-fluoro-propionyl]-piperazine-1-carboxylic acid butyl ester]	40	–	30
O=C(NCC(=O)N1CCN(C(=O)OCCC(F)(F)F)CC1)c1cc(OCC(=O)N2CCC[C@H]2C(=O)NC2CCC2)n(-c2ccccc2)n1 [Example 256, 4-[2-({5-[2-((S)-2-Cyclobutylcarbamoyl-pyrrolidin-1-yl)-2-oxo-ethoxy]-1-phenyl-1H-pyrazole-3-carbonyl}-amino)-acetyl]-piperazine-1-carboxylic acid 3,3,3-trifluoro-propyl ester]	190	–	130
CCOC(=O)N1CCN(C(=O)[C@H](CCC(=O)O)NC(=O)c2cc(OCC(=O)N3CCC[C@H]3c3cc(C)no3)n(-c3ccccc3)n2)CC1 [Example 173, 4-{(S)-4-Carboxy-2-[(5-{2-[(S)-2-(3-methyl-isoxazol-5-yl)-pyrrolidin-1-yl]-2-oxo-ethoxy}-1-phenyl-1H-pyrazole-3-carbonyl)-amino]-butyryl}-piperazine-1-carboxylic acid ethyl ester]	940	–	860
